# Assay results: paper PMC10466331, “Fluorescence polarisation activity-based protein profiling for the identification of deoxynojirimycin-type inhibitors selective for lysosomal retaining alpha- and beta-glucosidases” (Chemical Science, 2023)
# Where two headings read alike, the source gives them in different places.
# Assays:
# [1] = molecular target: T1, recombinant human GBA1 (rhGBA1, Cerezyme) (Homo sapiens, UniProt P04062, R534H); experiment: competitive FluoPol-ABPP assay on rhGBA1 with TAMRA-ABP I; type: biochemical; conditions: library screen, 5 μM inhibitor, 5 nM ABP I
# T1 construct: purchased Genzyme
# T1 sequence (P04062 40-536 R534H): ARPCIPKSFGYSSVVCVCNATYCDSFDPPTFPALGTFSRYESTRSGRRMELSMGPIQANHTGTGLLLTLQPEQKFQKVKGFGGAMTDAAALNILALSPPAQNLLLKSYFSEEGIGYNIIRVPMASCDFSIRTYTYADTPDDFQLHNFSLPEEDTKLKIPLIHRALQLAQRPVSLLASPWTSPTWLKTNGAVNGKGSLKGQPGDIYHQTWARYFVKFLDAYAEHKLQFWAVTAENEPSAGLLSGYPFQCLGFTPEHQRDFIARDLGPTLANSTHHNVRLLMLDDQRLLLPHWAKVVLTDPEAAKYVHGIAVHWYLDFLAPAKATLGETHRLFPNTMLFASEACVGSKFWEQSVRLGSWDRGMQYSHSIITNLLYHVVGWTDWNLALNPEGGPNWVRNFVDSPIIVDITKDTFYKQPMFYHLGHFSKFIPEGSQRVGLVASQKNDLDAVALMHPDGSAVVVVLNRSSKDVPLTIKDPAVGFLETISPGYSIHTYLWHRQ
# [2] = molecular target: T2, recombinant human GAA (rhGAA, Myozyme) (Homo sapiens, UniProt P10253); experiment: competitive FluoPol-ABPP assay on rhGAA with TAMRA-ABP II; type: biochemical; conditions: library screen, 5 μM inhibitor, 25 nM ABP II;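 further: fluorescence polarization read at 540 nm excitation and 590 nm emission, background-corrected, normalized to uninhibited probe labelling as 100% and excess cyclosulfate as 0%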
# T2 construct: purchased Genzyme
# [3] = molecular target: T3, human recombinant lysosomal α-glucosidase GAA (Myozyme) (Homo sapiens, UniProt P10253); experiment: fluorogenic substrate (4MU-α-D-glucopyranoside) assay on rhGAA; type: biochemical; conditions: Table S2, 4-MU alpha glucoside substrate, read-out: IC50 on rhGAA
# T3 construct: purchased Genzyme
# [4] = molecular target: T4, ER α-glucosidase GANAB (from Pompe disease Fibroblast lysates) (Homo sapiens, UniProt Q14697); experiment: fluorogenic substrate (4MU-α-D-glucopyranoside) assay on GANAB in Pompe fibroblast homogenates; type: biochemical;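 further: inhibitor preincubated 30 min at 37 °C with homogenate, then GANAB activity read after 2 h with 3.0 mM fluorogenic substrate in McIlvaine buffer containing 0.1% BSA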
# T4 construct: Cellular homogenates of Pompe fibroblasts (1 mg mL^−1) were used as protein source for GANAB; endogenous in cells; host or cells: Pompe disease fibroblasts (homogenate)
# T4 sequence (Q14697 29-944): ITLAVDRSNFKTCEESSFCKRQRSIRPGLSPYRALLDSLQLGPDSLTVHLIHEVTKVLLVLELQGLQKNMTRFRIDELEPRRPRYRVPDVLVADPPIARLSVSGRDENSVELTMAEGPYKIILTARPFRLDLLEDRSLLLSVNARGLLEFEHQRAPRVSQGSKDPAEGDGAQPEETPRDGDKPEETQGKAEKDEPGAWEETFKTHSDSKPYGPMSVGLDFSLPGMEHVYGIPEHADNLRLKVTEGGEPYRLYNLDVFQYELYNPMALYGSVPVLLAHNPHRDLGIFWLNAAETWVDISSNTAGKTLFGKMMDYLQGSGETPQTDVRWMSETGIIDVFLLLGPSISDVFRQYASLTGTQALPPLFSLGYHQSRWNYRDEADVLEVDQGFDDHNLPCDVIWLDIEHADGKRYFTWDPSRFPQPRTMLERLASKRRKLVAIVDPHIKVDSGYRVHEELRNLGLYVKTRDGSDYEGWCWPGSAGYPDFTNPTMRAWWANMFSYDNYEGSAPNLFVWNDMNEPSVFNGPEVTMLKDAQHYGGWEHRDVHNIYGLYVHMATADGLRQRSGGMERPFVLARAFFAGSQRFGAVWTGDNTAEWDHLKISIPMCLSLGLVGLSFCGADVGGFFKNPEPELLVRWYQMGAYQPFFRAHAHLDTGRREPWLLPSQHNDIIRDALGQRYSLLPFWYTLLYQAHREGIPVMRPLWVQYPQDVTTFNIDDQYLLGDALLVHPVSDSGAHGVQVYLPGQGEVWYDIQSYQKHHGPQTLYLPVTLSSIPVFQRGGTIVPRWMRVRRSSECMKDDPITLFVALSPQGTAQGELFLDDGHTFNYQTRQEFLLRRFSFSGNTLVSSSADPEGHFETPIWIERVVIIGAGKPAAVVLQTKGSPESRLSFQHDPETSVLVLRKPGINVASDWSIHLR
# T4 sequence (P14314 15-528 partner): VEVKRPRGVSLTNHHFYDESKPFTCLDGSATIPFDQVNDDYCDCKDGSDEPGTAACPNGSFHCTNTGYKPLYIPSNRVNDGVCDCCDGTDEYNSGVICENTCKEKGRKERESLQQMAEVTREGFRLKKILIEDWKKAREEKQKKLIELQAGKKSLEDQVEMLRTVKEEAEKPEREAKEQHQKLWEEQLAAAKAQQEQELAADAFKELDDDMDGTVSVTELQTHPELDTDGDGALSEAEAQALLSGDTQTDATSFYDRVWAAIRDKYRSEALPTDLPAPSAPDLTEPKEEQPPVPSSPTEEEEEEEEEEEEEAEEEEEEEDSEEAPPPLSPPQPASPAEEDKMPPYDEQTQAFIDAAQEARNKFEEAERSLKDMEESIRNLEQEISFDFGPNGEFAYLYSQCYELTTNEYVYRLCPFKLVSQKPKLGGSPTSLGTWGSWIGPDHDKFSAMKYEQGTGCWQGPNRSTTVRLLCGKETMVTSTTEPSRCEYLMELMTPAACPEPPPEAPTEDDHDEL
# rhGBA1 (Cerezyme) = conditions: read-out: IC50 GBA1; cited from earlier work
# [5] = test system: GBA2 (GBA2-overexpressing HEK293T lysate); conditions: cited from earlier work
# [6] = test system: glucosylceramide synthase (GCS) (RAW 264.7 cells); conditions: in situ; cited from earlier work
# [7] = test system: retaining β-glucosidases GBA1, GBA2 and GBA3; experiment: SDS-gel activity-based protein profiling (in-gel fluorescence labelling); type: biochemical; conditions: 500 nM probe, 30 min 37 °C
# Description: Lysates of HEK293T GBA2 overexpressing and HEK293T GBA3 overexpressing cells[24] were prepared in 150 mM McIlvain buffer (pH = 5.0), supplemented with 0.25 M sucrose, 0.2% sodium taurocholate (w/v) and 0.1% Triton X-100 (v/v). The lysates were homogenized using sonication, after which the total protein concentration was determined via Pierce BCA Protein assay (ThermoFisher) using BSA (ThermoFisher) for standards. Samples (Vf = 20 μL) of an 1 : 1 mixture of GBA2 : GBA3 lysates containing 40 μg protein were incubated for 30 min at 37 °C with 500 nM ABP. Protein content was denatured using Laemmli Buffer (4×) at 98 °C for 5 min. Reactions were resolved by 7.5% SDS-PAGE electrophoresis and wet slabs were scanned for fluorescence (Typhoon FLA 9500, GE Healthcare).
# [8] = 4MU-α-glucoside substrate, pH 7.0, mean ± SD, 3 technical replicates, read-out: IC50 GANAB
# [9] = Table S2, 4-MU alpha glucoside substrate, read-out: IC50 on GANAB
GAA FP% (residual FP-signal) [2],IC50 [3],"IC50 [4, 9]",SMILES,other results
0.9%,24 nM,1000 nM,OC[C@@H]1[C@@H](O)[C@H](O)[C@@H](O)CN1CCCCCOCc1ccc(-c2cccc(F)c2)cc1 [#ID 312],–
20%,760 nM,9320 nM,OC[C@@H]1[C@@H](O)[C@H](O)[C@@H](O)CN1CCCCCOCc1ccccc1 [#ID 139],–
18%,320 nM,9000 nM,CCCCCCCCCN1C[C@H](O)[C@@H](O)[C@H](O)[C@H]1CO [#ID 103],–
2.5%,36 nM,1700 nM,OC[C@@H]1[C@@H](O)[C@H](O)[C@@H](O)CN1CCCCCOCc1ccc(-c2ccc(C(F)(F)F)cc2)cc1 [#ID 307],–

# Second part, the compound before the results:
SMILES,GAA FP% (residual FP-signal) [2],IC50 [3],"IC50 [4, 9]",other results
O[C@@H]1[C@@H](O)[C@@H](CCCCCCOCC23CC4CC(CC(C4)C2)C3)NC[C@H]1O [Compound 7],–,–,–,inhibition at 5 µM [1]: > 90%
OC[C@H]1N[C@H](CCCCCOCC23CC4CC(CC(C4)C2)C3)[C@H](O)[C@@H](O)[C@@H]1O [Compound 14],34%,4000 nM,–,"IC50 [4, 8]: > 100000 nM; IC50 (rhGBA1 (Cerezyme)): 70 nM; IC50 [5]: 300 nM; IC50 [6]: 50000 nM"
COC(=O)c1cc(C(=O)NCCCCc2cn(C[C@@H]3[C@@H](O)[C@H](O)[C@@H](O)[C@@H]4O[C@H]34)nn2)ccc1-c1c2ccc(=[N+](C)C)cc-2oc2cc(N(C)C)ccc12 [ABP I],–,–,–,β-glucosidase labelling selectivity of the probe [7]: modifies exclusively GBA1
OC[C@@H]1[C@@H](O)[C@H](O)[C@@H](O)CN1CCCCCOCc1cc2ccccc2c2ccccc12 [Compound 15],25%,110 nM,2000 nM,"IC50 [4, 8]: 1960 ± 40 nM; IC50 (rhGBA1 (Cerezyme)): 10000 nM; IC50 [5]: 100 nM; IC50 [6]: > 20000 nM"
OC[C@@H]1[C@@H](O)[C@H](O)[C@@H](O)CN1CCCCCOCc1ccc(-c2ccc(Cl)cc2)cc1 [#ID 314],1.7%,93 nM,150 nM,–
CCCCCCCCN1C[C@H](O)[C@@H](O)[C@H](O)[C@H]1CO [#ID 33],–,–,–,"GAA FP% (residual FP-signal) ([2]; listed as 33): 28%; IC50 ([3]; listed as 33): 540 nM; IC50 ([4]; Table S2, 4-MU alpha glucoside substrate, listed as 33, read-out: IC50 on GANAB): 16000 nM"
OC[C@H]1N[C@H](CCCCCCOCC23CC4CC(CC(C4)C2)C3)[C@H](O)[C@@H](O)[C@@H]1O [Compound 8],29%,2460 nM,–,inhibition at 5 µM [1]: > 90%
Cc1cccc(-c2ccc(COCCCCCN3C[C@H](O)[C@@H](O)[C@H](O)[C@H]3CO)cc2)c1 [#ID 302],0.1%,20 nM,1600 nM,–
CC(C)=CCC/C(C)=C/CC/C(C)=C/CN1C[C@H](O)[C@@H](O)[C@H](O)[C@H]1CO [#ID 16],0.9%,320 nM,8800 nM,–
CCCCN1C[C@H](O)[C@@H](O)[C@@H](O)[C@H]1CO [#ID 153],14%,3600 nM,19000 nM,–
